In ChEMBL document CHEMBL4507301 (2021):

Assays:
[1] = system: Tyrosine-protein kinase ABL1 (Homo sapiens), P00519 [F317I]; conditions: Compound concentration 1000.0 nM
[2] = target: Atypical kinase COQ8B, mitochondrial (Homo sapiens) (UniProt Q96D53); conditions: Compound concentration 1000.0 nM
[3] = target: Mitogen-activated protein kinase kinase kinase 5 (Homo sapiens) (UniProt Q99683); conditions: Compound concentration 1000.0 nM
[4] = target: Calcium/calmodulin-dependent protein kinase kinase 2 (Homo sapiens) (UniProt Q96RR4); conditions: Compound concentration 1000.0 nM
[5] = target: Cyclin-dependent kinase 13 (Homo sapiens) (UniProt Q14004); conditions: Compound concentration 1000.0 nM
[6] = target: Cyclin-dependent kinase 19 (Homo sapiens) (UniProt Q9BWU1); conditions: Compound concentration 1000.0 nM
[7] = target: Cyclin-dependent kinase 4 (Homo sapiens) (UniProt P11802); conditions: Compound concentration 1000.0 nM
[8] = target: Cyclin-dependent kinase-like 2 (Homo sapiens) (UniProt Q92772); conditions: Compound concentration 1000.0 nM
[9] = target: Dual specificity protein kinase CLK4 (Homo sapiens) (UniProt Q9HAZ1); conditions: Compound concentration 1000.0 nM
[10] = target: Casein kinase I isoform alpha-like (Homo sapiens) (UniProt Q8N752); conditions: Compound concentration 1000.0 nM
[11] = target: Serine/threonine-protein kinase DCLK3 (Homo sapiens) (UniProt Q9C098); conditions: Compound concentration 1000.0 nM
[12] = target: Serine/threonine-protein kinase 17B (Homo sapiens) (UniProt O94768); conditions: Compound concentration 1000.0 nM
[13] = system: Epidermal growth factor receptor (Homo sapiens), P00533 [UNDEFINED MUTATION]; conditions: Compound concentration 1000.0 nM
[14] = target: Ephrin type-A receptor 1 (Homo sapiens) (UniProt P21709); conditions: Compound concentration 1000.0 nM
[15] = target: Mitogen-activated protein kinase 7 (Homo sapiens) (UniProt Q13164); conditions: Compound concentration 1000.0 nM
[16] = target: Fibroblast growth factor receptor 1 (Homo sapiens) (UniProt P11362); conditions: Compound concentration 1000.0 nM
[17] = target: Fibroblast growth factor receptor 3 (Homo sapiens) (UniProt P22607); conditions: Compound concentration 1000.0 nM
[18] = system: Receptor-type tyrosine-protein kinase FLT3 (Homo sapiens), P36888 [N841I]; conditions: Compound concentration 1000.0 nM
[19] = target: Tyrosine-protein kinase FRK (Homo sapiens) (UniProt P42685); conditions: Compound concentration 1000.0 nM
[20] = target: Tyrosine-protein kinase JAK3 (Homo sapiens) (UniProt P52333); conditions: Compound concentration 1000.0 nM
[21] = target: Mitogen-activated protein kinase kinase kinase kinase 3 (Homo sapiens) (UniProt Q8IVH8); conditions: Compound concentration 1000.0 nM
[22] = target: Mitogen-activated protein kinase kinase kinase kinase 5 (Homo sapiens) (UniProt Q9Y4K4); conditions: Compound concentration 1000.0 nM
[23] = target: Serine/threonine-protein kinase MARK1 (Homo sapiens) (UniProt Q9P0L2); conditions: Compound concentration 1000.0 nM
[24] = target: Maternal embryonic leucine zipper kinase (Homo sapiens) (UniProt Q14680); conditions: Compound concentration 1000.0 nM
[25] = target: Mitogen-activated protein kinase kinase kinase 10 (Homo sapiens) (UniProt Q02779); conditions: Compound concentration 1000.0 nM
[26] = target: Mitogen-activated protein kinase kinase kinase 11 (Homo sapiens) (UniProt Q16584); conditions: Compound concentration 1000.0 nM
[27] = target: Myosin light chain kinase 2, skeletal/cardiac muscle (Homo sapiens) (UniProt Q9H1R3); conditions: Compound concentration 1000.0 nM
[28] = target: Mitogen-activated protein kinase kinase kinase 14 (Homo sapiens) (UniProt Q99558); conditions: Compound concentration 1000.0 nM
[29] = target: Cyclin-dependent kinase 2 homolog (Plasmodium falciparum (isolate 3D7)) (UniProt P61075); conditions: Compound concentration 1000.0 nM
[30] = system: Phosphatidylinositol 4,5-bisphosphate 3-kinase catalytic subunit alpha isoform (Homo sapiens), P42336 [E545K]; conditions: Compound concentration 1000.0 nM
[31] = target: Phosphatidylinositol 4-kinase beta (Homo sapiens) (UniProt Q9UBF8); conditions: Compound concentration 1000.0 nM
[32] = target: Membrane-associated tyrosine- and threonine-specific cdc2-inhibitory kinase (Homo sapiens) (UniProt Q99640); conditions: Compound concentration 1000.0 nM
[33] = target: Serine/threonine-protein kinase N1 (Homo sapiens) (UniProt Q16512); conditions: Compound concentration 1000.0 nM
[34] = target: Protein kinase C theta type (Homo sapiens) (UniProt Q04759); conditions: Compound concentration 1000.0 nM
[35] = target: Rho-associated protein kinase 2 (Homo sapiens) (UniProt O75116); conditions: Compound concentration 1000.0 nM
[36] = target: Non-receptor tyrosine-protein kinase TNK1 (Homo sapiens) (UniProt Q13470); conditions: Compound concentration 1000.0 nM
[37] = target: Serine/threonine-protein kinase TNNI3K (Homo sapiens) (UniProt Q59H18); conditions: Compound concentration 1000.0 nM
[38] = target: Serine/threonine-protein kinase ULK2 (Homo sapiens) (UniProt Q8IYT8); conditions: Compound concentration 1000.0 nM
[39] = target: Serine/threonine-protein kinase 25 (Homo sapiens) (UniProt O00506); conditions: Compound concentration 1000.0 nM
[40] = target: 5-hydroxytryptamine receptor 1B (Homo sapiens) (UniProt P28222); conditions: Compound concentration 10.0 uM
[41] = target: 5-hydroxytryptamine receptor 6 (Homo sapiens) (UniProt P50406); conditions: Compound concentration 10.0 uM
[42] = target: D(1A) dopamine receptor (Homo sapiens) (UniProt P21728); conditions: Compound concentration 10.0 uM
[43] = target: Mu-type opioid receptor (Homo sapiens) (UniProt P35372); conditions: Compound concentration 10.0 uM
[44] = target: Alpha-1B adrenergic receptor (Homo sapiens) (UniProt P35368); conditions: Compound concentration 10.0 uM
[45] = target: Sigma non-opioid intracellular receptor 1 (Homo sapiens) (UniProt Q99720); conditions: Compound concentration 10.0 uM

Alpha-1B adrenergic receptor (Homo sapiens), sequence (P35368 whole entry): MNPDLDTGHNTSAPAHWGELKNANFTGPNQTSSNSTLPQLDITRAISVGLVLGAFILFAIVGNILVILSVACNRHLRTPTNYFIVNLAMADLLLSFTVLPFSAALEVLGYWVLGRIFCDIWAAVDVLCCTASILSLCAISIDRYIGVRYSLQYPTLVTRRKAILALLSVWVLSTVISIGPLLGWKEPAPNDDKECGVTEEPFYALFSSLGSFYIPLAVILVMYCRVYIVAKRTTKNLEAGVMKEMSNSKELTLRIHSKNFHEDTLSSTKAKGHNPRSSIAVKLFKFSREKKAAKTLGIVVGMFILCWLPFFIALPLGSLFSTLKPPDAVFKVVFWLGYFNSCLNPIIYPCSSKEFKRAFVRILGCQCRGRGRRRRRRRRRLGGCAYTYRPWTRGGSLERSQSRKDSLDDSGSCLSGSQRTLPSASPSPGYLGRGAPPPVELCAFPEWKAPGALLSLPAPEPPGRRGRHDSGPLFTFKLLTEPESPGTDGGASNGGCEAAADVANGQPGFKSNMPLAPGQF
Membrane-associated tyrosine- and threonine-specific cdc2-inhibitory kinase (Homo sapiens), sequence (Q99640 whole entry): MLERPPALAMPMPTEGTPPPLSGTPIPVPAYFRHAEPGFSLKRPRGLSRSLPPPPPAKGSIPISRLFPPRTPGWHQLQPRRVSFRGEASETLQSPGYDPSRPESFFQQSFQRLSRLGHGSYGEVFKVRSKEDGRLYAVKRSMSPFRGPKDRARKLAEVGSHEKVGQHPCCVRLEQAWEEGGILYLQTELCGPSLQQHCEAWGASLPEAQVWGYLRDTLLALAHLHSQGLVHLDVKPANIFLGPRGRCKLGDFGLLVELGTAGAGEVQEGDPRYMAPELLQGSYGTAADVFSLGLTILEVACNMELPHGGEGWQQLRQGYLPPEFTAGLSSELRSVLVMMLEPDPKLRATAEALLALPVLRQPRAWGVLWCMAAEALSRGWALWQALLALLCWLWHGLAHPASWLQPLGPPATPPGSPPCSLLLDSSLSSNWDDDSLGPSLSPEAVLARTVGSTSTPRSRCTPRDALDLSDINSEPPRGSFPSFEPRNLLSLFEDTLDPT
Phosphatidylinositol 4-kinase beta (Homo sapiens), sequence (Q9UBF8 2-816 limits assumed): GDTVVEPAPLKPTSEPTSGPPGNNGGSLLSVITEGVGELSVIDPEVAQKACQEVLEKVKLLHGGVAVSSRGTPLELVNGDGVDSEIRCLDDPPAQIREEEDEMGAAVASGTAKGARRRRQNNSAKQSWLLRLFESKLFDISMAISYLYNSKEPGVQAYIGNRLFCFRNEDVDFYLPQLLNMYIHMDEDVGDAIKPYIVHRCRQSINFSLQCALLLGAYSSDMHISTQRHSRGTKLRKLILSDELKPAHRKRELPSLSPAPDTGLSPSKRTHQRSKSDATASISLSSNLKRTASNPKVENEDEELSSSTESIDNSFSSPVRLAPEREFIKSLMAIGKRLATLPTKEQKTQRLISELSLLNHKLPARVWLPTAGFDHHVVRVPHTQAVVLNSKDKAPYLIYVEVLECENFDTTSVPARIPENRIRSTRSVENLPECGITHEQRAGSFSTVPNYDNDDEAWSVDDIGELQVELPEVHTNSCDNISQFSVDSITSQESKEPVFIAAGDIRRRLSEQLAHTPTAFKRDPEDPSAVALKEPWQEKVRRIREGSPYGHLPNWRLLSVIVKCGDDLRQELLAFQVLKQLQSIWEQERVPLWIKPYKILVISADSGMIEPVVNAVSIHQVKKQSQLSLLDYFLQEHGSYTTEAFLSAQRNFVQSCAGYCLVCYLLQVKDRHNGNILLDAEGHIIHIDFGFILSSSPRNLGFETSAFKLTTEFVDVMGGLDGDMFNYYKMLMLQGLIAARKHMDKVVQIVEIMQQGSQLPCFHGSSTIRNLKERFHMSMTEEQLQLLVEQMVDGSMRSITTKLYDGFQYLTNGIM
Maternal embryonic leucine zipper kinase (Homo sapiens), sequence (Q14680 whole entry, looked up): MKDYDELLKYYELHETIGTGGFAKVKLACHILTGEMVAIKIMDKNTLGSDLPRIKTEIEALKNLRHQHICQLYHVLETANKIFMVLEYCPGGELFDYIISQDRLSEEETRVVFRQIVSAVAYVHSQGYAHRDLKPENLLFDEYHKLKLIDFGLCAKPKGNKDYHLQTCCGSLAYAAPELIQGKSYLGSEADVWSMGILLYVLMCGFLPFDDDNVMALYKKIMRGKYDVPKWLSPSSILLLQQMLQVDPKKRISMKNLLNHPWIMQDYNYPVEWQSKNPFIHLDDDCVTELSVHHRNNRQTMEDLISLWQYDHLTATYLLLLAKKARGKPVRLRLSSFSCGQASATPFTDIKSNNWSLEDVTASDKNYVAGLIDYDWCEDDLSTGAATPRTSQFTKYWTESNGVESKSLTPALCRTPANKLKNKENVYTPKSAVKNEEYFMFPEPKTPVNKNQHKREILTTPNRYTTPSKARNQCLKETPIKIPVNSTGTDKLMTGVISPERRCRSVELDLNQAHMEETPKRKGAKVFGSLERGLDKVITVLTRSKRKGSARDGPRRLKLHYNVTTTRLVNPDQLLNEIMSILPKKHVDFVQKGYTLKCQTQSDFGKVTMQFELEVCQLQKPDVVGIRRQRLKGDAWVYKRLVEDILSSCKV
Tyrosine-protein kinase ABL1 (Homo sapiens), P00519 [F317I], sequence (P00519 whole entry F317I): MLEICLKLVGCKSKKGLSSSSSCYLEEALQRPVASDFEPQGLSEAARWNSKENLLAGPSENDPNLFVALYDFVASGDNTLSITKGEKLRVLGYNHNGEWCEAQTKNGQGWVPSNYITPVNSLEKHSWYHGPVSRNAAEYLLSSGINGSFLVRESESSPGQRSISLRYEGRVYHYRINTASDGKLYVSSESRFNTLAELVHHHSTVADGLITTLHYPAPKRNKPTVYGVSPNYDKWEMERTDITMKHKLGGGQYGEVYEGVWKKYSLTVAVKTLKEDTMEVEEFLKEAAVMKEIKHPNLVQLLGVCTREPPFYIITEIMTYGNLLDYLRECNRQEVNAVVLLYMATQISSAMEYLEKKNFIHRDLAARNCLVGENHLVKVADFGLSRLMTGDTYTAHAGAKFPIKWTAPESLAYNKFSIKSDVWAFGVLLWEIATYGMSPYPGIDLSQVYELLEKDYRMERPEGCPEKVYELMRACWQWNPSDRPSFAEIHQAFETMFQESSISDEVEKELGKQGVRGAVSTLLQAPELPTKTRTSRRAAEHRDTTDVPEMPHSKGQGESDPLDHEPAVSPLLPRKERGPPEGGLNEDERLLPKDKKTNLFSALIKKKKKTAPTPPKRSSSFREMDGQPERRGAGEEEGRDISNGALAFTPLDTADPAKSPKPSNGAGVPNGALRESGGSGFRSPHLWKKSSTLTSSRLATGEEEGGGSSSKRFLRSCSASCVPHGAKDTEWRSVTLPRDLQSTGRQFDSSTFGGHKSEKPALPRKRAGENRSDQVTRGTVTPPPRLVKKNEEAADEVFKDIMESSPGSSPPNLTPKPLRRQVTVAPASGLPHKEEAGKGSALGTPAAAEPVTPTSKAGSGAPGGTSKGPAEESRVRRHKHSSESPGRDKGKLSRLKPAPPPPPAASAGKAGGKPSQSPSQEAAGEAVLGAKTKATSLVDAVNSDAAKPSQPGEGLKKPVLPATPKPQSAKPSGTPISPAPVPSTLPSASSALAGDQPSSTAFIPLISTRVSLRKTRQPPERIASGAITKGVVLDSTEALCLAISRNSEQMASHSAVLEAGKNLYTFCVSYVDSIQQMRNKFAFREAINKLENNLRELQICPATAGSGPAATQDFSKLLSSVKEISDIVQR
Cyclin-dependent kinase 19 (Homo sapiens), sequence (Q9BWU1 whole entry): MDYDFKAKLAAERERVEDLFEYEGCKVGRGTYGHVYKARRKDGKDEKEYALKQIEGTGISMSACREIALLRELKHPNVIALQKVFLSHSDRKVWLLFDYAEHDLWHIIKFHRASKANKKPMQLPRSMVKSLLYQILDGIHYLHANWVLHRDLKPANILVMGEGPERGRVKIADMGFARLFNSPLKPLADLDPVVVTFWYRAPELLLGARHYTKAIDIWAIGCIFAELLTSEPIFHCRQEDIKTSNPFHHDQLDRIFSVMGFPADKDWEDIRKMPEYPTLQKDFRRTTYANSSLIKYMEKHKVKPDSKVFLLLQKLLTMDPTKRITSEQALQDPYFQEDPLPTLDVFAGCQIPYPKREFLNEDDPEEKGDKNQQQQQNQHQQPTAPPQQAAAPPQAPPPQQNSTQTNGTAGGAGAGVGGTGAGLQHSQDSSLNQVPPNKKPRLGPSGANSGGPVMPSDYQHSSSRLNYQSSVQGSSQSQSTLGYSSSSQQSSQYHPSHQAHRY
Atypical kinase COQ8B, mitochondrial (Homo sapiens), sequence (Q96D53 whole entry): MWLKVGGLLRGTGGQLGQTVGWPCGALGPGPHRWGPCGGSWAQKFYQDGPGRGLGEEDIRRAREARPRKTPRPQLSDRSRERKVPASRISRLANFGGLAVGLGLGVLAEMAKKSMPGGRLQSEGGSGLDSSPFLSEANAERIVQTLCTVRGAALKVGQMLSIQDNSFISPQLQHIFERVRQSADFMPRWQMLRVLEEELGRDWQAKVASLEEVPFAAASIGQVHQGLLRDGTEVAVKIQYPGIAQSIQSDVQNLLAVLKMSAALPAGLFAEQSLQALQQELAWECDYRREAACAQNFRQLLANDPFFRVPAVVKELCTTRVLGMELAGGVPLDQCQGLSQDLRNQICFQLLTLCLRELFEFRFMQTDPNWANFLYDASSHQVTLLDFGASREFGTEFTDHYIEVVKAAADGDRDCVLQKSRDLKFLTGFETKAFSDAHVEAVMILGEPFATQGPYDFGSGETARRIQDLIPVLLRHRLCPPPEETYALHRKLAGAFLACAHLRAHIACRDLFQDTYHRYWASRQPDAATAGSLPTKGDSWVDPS
Serine/threonine-protein kinase 17B (Homo sapiens), sequence (O94768 whole entry): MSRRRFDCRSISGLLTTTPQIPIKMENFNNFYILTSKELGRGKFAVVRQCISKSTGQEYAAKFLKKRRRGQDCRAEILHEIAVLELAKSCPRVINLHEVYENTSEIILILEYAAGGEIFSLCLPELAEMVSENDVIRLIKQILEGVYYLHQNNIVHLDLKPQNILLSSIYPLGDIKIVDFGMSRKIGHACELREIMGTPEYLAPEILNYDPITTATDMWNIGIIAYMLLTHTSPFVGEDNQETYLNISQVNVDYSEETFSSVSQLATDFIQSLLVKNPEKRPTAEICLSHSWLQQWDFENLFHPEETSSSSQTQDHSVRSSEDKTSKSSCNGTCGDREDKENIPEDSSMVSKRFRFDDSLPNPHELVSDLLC

C[C@@H](c1cccc(C#N)c1)n1cc(Cl)cc(C(N)=O)c1=N [(S)-9s]
inactive: residual activity [1] 100% | residual activity [2] 88% | residual activity [3] 100% | residual activity [4] 100% | residual activity [5] 100% | residual activity [6] 100% | residual activity [7] 91% | residual activity [8] 100% | residual activity [9] 100% | residual activity [10] 82% | residual activity [11] 86% | residual activity [12] 72% | residual activity [13] 88% | residual activity [14] 77% | residual activity [15] 88% | residual activity [16] 91% | residual activity [17] 100% | residual activity [18] 86% | residual activity [19] 100% | residual activity [20] 100% | residual activity [21] 100% | residual activity [22] 96% | residual activity [23] 100% | residual activity [24] 78% | residual activity [25] 77% | residual activity [26] 100% | residual activity [27] 100% | residual activity [28] 93% | residual activity [29] 100% | residual activity [30] 88% | residual activity [31] 85% | residual activity [32] 100% | residual activity [33] 83% | residual activity [34] 86% | residual activity [35] 90% | residual activity [36] 94% | residual activity [37] 100% | residual activity [38] 89% | residual activity [39] 100% | inhibition [40] -2.19% | inhibition [41] 7.75% | inhibition [42] -6.15% | inhibition [43] -6.83% | inhibition [44] -5.97% | inhibition [45] 17.4%

C[C@H](c1cccc(C#N)c1)n1cc(Cl)cc(C(N)=O)c1=N [(R)-9s]
inactive: residual activity [1] 89% | residual activity [2] 100% | residual activity [3] 85% | residual activity [4] 100% | residual activity [5] 100% | residual activity [6] 89% | residual activity [7] 96% | residual activity [8] 100% | residual activity [9] 100% | residual activity [10] 92% | residual activity [11] 99% | residual activity [12] 73% | residual activity [13] 78% | residual activity [14] 97% | residual activity [15] 88% | residual activity [16] 95% | residual activity [17] 88% | residual activity [18] 97% | residual activity [19] 98% | residual activity [20] 94% | residual activity [21] 76% | residual activity [22] 100% | residual activity [23] 97% | residual activity [24] 74% | residual activity [25] 100% | residual activity [26] 100% | residual activity [27] 100% | residual activity [28] 62% | residual activity [29] 100% | residual activity [30] 82% | residual activity [31] 100% | residual activity [32] 100% | residual activity [33] 65% | residual activity [34] 97% | residual activity [35] 94% | residual activity [36] 77% | residual activity [37] 92% | residual activity [38] 71% | residual activity [39] 100% | inhibition [40] 9.16% | inhibition [41] 6.03% | inhibition [42] 1.16% | inhibition [43] -5.45% | inhibition [44] -1.16% | inhibition [45] 17.7%
